Reference: patent US8664379B2, “Fused heterocyclic compounds as ion channel modulators” (Gilead Sciences, Inc., priority 2008, dated 2014)
“And” between values parts separate entries of the source, which are not always exact repeats. Equal values may be shown once.

Assays:
[1] = molecular target: wild-type human cardiac sodium channel, hNav1.5 (late sodium current) (Homo sapiens, UniProt Q14524); assay: Late INa screening assay (PatchXpress whole cell patch clamp); format: cell-based; conditions: HEK293, 10 μM test compound; HEK293 cells expressing hNav1.5; late INa generated with 10 μM Tefluthrin (some experiments 50 nM ATX II); read-out: Late INa % blk (10 μM test cmpd)
[2] = molecular target: T1, hERG potassium channel (Homo sapiens, UniProt Q12809); assay: hERG screening assay (PatchXpress patch clamp); format: cell-based; conditions: hERG expressed in CHO cells, peak current at -50 mV; for hERG Patch Clamp hERG % blk 1 μm: 1 μM test compound; for hERG Patch Clamp hERG % blk 10 μm: 10 μM test compound
T1 construct: expressed in transfected cells
Description: Compounds were screened to test their activity in blocking the hERG potassium channel. The hERG channel was heterologously expressed in a CHO (Chinese Hamster Ovary) cell line. Cells were maintained with standard tissue culture procedures and stable channel expression was maintained with 500 μg/ml G418 in the culture medium. Cells were harvested for testing on the PatchXpress automated patch clamp with Accumax (Innovative Cell Technologies, San Diego, Calif.) to isolate single cells.
The following solutions were used for electrophysiological recordings. The external solution contained: 2 mM CaCl2; 2 mM MgCl2; 4 mM KCl; 150 mM NaCl; 10 mM Glucose; 10 mM HEPES (pH 7.4 with 1M NaOH, osmolarity). The internal solution contained: 140 mM KCl, 10 mM MgCl2, 6 mM EGTA, 5 mM HEPES, 5 mM ATP (pH adjusted to 7.25 with KOH).
hERG channels are activated when the voltage is stepped to +20 mV from the −80 mV holding potential. During a 5 second step at +20 mV, the channels activated and then largely inactivated, so the currents were relatively small. Upon returning to −50 mV from +20 mV, hERG currents transiently became much larger as inactivation was rapidly removed and then the channel closed. The first step to −50 mV for 300 ms was used as a baseline for measuring the peak amplitude during the step to −50 mV after channel activation. The peak current at −50 mV was measured both under control conditions and after addition of compound.
All compounds were prepared as 10 mM DMSO stocks in glass vials. Stock solutions were mixed by vigorous vortexing and sonication for about 2 minutes at room temperature. For testing, compounds were diluted in glass vials using an intermediate dilution step in pure DMSO and then further diluted to working concentrations in external solution. Dilutions were prepared no longer than 20 minutes before use.
After achieving the whole-cell configuration, cells were monitored for 90 seconds to assess stability and washed with external solution for 66 seconds. The voltage protocol described above was then applied to the cells every 12 seconds and throughout the whole procedure. Only cells with stable recording parameters and meeting specified health criteria were allowed to enter the compound addition procedure.
External solution containing 0.1% DMSO (vehicle) was applied to the cells first to establish the control peak current amplitude. After allowing the current to stabilize for 3 to 5 minutes, 1 μM and then 10 μM test compounds were applied. Each compound concentration was added 4 times and cells were kept in test solution until the effect of the compound reached steady state or for a maximum of 12 minutes. After addition of test compound, a positive control (1 μM Cisapride) was added—it must block >95% of the current for the experiment to be considered valid. Washout in the external solution compartment was performed until the recovery of the current reached steady state. Data were analyzed using DataXpress, Clampfit (Molecular Devices, Inc., Sunnyvale) and Origin 7 (Originlab Corp.)

Chain of wild-type human cardiac sodium channel, hNav1.5 (late sodium current) (Q14524 whole entry): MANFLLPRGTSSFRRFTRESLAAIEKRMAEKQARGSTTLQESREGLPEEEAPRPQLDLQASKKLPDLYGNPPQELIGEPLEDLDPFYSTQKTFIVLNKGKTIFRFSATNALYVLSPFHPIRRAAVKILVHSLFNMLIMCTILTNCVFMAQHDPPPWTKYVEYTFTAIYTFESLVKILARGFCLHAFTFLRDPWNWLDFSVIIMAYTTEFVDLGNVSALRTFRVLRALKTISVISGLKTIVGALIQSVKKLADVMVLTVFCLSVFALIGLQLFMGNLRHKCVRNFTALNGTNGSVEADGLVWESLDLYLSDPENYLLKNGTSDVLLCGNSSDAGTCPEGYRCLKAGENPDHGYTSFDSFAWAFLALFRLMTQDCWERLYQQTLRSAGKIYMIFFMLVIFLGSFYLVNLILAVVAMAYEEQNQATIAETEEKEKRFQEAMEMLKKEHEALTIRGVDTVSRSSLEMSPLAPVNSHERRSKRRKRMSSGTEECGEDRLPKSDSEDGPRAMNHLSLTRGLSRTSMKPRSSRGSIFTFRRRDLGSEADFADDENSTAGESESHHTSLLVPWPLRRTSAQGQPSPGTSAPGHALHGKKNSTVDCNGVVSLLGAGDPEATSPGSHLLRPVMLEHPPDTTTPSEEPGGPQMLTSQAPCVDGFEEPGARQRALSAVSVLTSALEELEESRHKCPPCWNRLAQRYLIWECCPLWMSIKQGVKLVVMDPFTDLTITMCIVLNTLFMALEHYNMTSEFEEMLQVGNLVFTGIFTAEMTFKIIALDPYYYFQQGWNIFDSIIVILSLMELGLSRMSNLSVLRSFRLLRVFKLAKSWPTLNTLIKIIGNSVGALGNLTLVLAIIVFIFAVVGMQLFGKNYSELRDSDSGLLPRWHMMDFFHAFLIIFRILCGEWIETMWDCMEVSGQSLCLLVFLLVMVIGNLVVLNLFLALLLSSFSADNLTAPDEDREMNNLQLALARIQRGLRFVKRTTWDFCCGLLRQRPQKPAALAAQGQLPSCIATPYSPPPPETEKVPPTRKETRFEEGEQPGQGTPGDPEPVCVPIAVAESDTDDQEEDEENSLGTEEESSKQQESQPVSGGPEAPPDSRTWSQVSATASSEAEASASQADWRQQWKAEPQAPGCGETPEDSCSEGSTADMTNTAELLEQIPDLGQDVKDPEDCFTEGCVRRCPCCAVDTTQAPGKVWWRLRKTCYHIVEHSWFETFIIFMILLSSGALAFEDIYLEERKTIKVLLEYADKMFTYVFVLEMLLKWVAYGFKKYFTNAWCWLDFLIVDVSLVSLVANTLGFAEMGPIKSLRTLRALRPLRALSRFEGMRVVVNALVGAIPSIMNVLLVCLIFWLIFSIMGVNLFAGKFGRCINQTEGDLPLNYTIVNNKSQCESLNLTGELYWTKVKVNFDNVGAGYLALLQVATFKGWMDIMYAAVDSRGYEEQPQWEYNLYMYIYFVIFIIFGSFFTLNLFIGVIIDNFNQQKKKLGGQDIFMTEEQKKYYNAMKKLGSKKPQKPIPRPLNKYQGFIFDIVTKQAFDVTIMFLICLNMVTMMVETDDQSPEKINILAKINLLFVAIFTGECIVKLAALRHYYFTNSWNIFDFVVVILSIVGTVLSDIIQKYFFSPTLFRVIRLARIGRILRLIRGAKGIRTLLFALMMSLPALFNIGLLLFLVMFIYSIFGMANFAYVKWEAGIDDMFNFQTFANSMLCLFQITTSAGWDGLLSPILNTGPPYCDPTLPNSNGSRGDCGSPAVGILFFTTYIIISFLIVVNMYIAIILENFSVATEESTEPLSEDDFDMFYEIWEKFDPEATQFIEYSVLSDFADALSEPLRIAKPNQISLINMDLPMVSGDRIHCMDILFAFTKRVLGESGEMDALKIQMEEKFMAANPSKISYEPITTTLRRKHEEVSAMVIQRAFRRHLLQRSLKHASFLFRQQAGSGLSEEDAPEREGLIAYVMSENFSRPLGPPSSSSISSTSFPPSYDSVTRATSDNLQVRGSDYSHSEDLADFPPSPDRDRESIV
T1 sequence (Q12809 whole entry): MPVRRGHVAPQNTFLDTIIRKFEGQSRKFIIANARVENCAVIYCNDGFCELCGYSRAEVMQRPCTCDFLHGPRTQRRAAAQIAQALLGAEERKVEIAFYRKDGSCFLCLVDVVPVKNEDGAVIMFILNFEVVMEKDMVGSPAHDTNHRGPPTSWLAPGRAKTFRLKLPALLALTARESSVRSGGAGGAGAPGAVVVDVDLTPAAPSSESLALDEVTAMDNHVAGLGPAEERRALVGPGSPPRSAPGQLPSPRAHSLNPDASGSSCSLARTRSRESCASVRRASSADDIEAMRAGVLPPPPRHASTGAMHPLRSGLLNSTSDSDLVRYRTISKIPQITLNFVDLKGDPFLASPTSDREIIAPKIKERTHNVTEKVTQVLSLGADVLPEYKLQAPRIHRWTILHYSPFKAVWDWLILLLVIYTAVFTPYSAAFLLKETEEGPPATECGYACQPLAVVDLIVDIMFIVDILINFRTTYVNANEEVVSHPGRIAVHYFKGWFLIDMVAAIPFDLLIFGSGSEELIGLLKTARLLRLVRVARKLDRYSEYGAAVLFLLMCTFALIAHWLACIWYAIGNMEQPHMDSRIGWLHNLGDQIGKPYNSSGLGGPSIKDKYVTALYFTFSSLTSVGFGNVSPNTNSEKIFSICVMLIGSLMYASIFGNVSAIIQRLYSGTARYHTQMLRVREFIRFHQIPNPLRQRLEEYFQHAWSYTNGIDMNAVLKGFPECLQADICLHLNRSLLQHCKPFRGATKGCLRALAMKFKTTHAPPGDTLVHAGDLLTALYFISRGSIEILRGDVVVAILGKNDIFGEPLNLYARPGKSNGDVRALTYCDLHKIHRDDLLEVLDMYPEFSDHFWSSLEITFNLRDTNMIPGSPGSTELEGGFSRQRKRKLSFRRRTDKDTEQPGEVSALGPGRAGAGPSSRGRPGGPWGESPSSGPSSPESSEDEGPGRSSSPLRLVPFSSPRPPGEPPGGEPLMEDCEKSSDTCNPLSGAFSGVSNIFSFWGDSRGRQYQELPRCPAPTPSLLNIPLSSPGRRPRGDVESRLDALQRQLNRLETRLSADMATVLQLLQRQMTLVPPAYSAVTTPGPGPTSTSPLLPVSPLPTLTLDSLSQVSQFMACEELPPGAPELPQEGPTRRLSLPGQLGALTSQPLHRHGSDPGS

O=C(O)CN1C(=O)CCc2cc(-c3ccc(Cl)c(Cl)c3)ccc21 [Compound 69, [6-(3,4-dichlorophenyl)-2-oxo-3,4-dihydroquinolin-1(2H)-yl]acetic acid]
inhibition at 10 µM [1]: 16% | hERG Patch Clamp hERG % blk 1 μm [2]: 10% | hERG Patch Clamp hERG % blk 10 μm [2]: 10%

O=C(O)CN1C(=O)CCc2cc(-c3ccc(Oc4ccccc4)cc3)ccc21 [Compound 70, [2-oxo-6-(4-phenoxyphenyl)-3,4-dihydroquinolin-1(2H)-yl]acetic acid]
inhibition at 10 µM [1]: 17% | hERG Patch Clamp hERG % blk 1 μm [2]: 10% | hERG Patch Clamp hERG % blk 10 μm [2]: 10%

CC(O)CN1C(=O)CCc2cc(-c3ccc(OC(F)(F)F)cc3)ccc21 (stereo not drawn) [Compound 89, 1-(2-hydroxypropyl)-6-[4-(trifluoromethoxy)phenyl]-3,4-dihydroquinolin-2(1H)-one]
inhibition at 10 µM [1]: 42% | hERG Patch Clamp hERG % blk 1 μm [2]: 24% and 16% | hERG Patch Clamp hERG % blk 10 μm [2]: 67% and 72%
